Here are results for nine compounds from ChEMBL document CHEMBL4190162, “SAR and identification of 2-(quinolin-4-yloxy)acetamides as Mycobacterium tuberculosis cytochrome bc1 inhibitors” (Medchemcomm, 2016).

What is called MIC90 is the lowest concentration that inhibits either 90% of growth or 90% of the strains tested, depending on the study. By MIC is commonly meant the smallest concentration in the dilution series that meets the test's criterion for growth inhibition. A lower MIC goes with inhibition by little substance. One may read the CC50 as the concentration giving 50% cytotoxicity.

Values after ≈ are worked out from the molar mass of the structure shown. Active and inactive are the calls of the source.

Data set [1] concerns Mycobacterium tuberculosis. Description: Antimycobacterial activity against Mycobacterium tuberculosis H37Rv measured after 6 days by resazurin dye based fluorescence assay. Particulars: 144 h. Format: functional. In general terms: Alamar Blue is a resazurin reagent that responds to reducing activity.
Data set [2] has as its system Mycobacterium tuberculosis. Description: Antimycobacterial activity against Mycobacterium tuberculosis H37Rv BSG001. Format: functional, organism-based.
The test system of data set [3] is Mycobacterium tuberculosis. The data set is described as follows: Antimycobacterial activity against Mycobacterium tuberculosis H37Rv after 2 weeks by microplate alamar blue assay. Format: functional. Particulars: 336 h.
The test system of data set [4] is Mycobacterium tuberculosis. The data set is described as follows: Antimycobacterial activity against Mycobacterium tuberculosis H37Rv measured after 2 weeks. In kind it is functional. Particulars: 336 h.
Data set [5] is described as follows: Cytotoxicity against human HepG2 cells after 24 to 48 hrs in presence of galactose by trypan blue dye-based hemocytometric method. In kind it is cell-based.
Data set [6] relates to Mycobacterium tuberculosis H37Rv. Description: Inhibition of Mycobacterium tuberculosis H37Rv cytochrome bc1 oxidase assessed as reduction in ATP level measured up to 24 hrs under anaerobic condition.
The subject of data set [7] is Mycobacterium tuberculosis. The data set is described as follows: Antimycobacterial activity against Mycobacterium tuberculosis H37Rv measured after 1 week. Format: functional. Particulars: 168 h.
Data set [8] in a line: Cytotoxicity against human HepG2 cells after 24 to 48 hrs in presence of glucose by trypan blue dye-based hemocytometric method. In kind it is cell-based.
For data set [9], the system named is Escherichia coli. The data set is described as follows: Antibacterial activity against Escherichia coli 25922. In kind it is functional, organism-based. Particulars: ATCC 25922.
In data set [10] the test system is Staphylococcus aureus. The data set is described as follows: Antibacterial activity against Staphylococcus aureus XEN36. Format: functional, organism-based.
The subject of data set [11] is Mycobacteroides abscessus. The data set is described as follows: Antibacterial activity against Mycobacterium abscessus. Format: functional, organism-based.
Data set [12] deals with Mycolicibacterium smegmatis. The data set is described as follows: Antibacterial activity against Mycobacterium smegmatis. Format: functional, organism-based.

Turning to `Cc1cc(OCC(=O)Nc2ccccc2)c2cc(Br)ccc2n1`, the MIC90 in data set [1] lay in the range of 0.3 to 3.3 µM (≈ 0.111 to 1.23 µg/mL).
For `COc1ccc2nc(C)cc(OCC(=O)Nc3ccccc3OC)c2c1`, the result in [2] was inactive. Also, the MIC stood at 1.11 µM (≈ 0.391 µg/mL) in data set [3], 53.9 µM (≈ 19 µg/mL) in data set [4] and 2.21 µM (≈ 0.779 µg/mL) in [7]. In [1], this compound had an MIC90 of 0.3 to 3.3 µM (≈ 0.106 to 1.16 µg/mL). Moreover, the half-maximal cytotoxic concentration (CC50) in data set [5] was 19.6 µM; in data set [8], above 142 µM. Moreover, in data set [6], the inhibition result is “Active”.
In turn, `COc1ccc2nc(C)cc(OCC(=O)Nc3cccc(C)c3)c2c1` had an MIC90 in data set [1] of 0.3 to 3.3 µM (≈ 0.101 to 1.11 µg/mL).
As to `COc1ccc2nc(C)cc(OCC(=O)NCc3ccccc3)c2c1`, the outcome in [2] was inactive. The values for the minimum inhibitory concentration (MIC) in [3], in data set [4] and in data set [7] were 2.32 µM (≈ 0.78 µg/mL), above 148 µM and 3.57 µM (≈ 1.2 µg/mL), respectively. In data set [1], this compound displayed an MIC90 of 0.3 to 3.3 µM (≈ 0.101 to 1.11 µg/mL). The half-maximal cytotoxic concentration (CC50) in data set [5] and in data set [8] was above 149 µM throughout. The inhibition result in data set [6] is “Active”.
For the compound `Cc1cc(OCC(=O)NCc2ccccc2)c2cc(Br)ccc2n1`, the MIC90 in [1] is 0.3 to 3.3 µM (≈ 0.116 to 1.27 µg/mL).
Turning to `COc1cc(NC(=O)COc2cc(C)nc3ccc(OC)cc23)cc(OC)c1`, the result in [2], in [9], in data set [10], in data set [11] and in [12] was inactive. Besides, the MIC in data set [3] is 24.6 µM (≈ 9.4 µg/mL); in data set [4], above 131 µM; in [7] it was above 131 µM. Besides, the CC50 in data set [5] and in data set [8] was above 131 µM throughout. Further, the inhibition result in data set [6] was “Active”.
On to `COc1ccc2nc(C)cc(OCC(=O)Nc3ccc(Cl)cc3)c2c1`, for which the outcome in [2], in data set [9], in [10], in data set [11] and in data set [12] was inactive. Also, the figures for the MIC in [3], in data set [4] and in data set [7] were 3.36 µM (≈ 1.2 µg/mL), above 140 µM and 104 µM (≈ 37 µg/mL), respectively. Besides, the CC50 in data set [5] worked out at 71.1 µM; in data set [8], 89.9 µM. For the same compound, in [6], the inhibition result is “Active”.
On to `CCCCCNC(=O)COc1cc(C)nc2ccc(OC)cc12`, for which the outcome in data set [2], in [9], in [10], in [11] and in [12] was inactive. The MIC turned out to be 19.8 µM (≈ 6.25 µg/mL) in [3], 158 µM (≈ 50 µg/mL) in [4] and 158 µM (≈ 50 µg/mL) in data set [7]. For the same compound, the CC50 in data set [5] was 106 µM; in [8], above 158 µM. The inhibition entry in data set [6] is “Active”.
Regarding `COc1ccccc1NC(=O)COc1cc(C)nc2ccccc12`, the result in data set [2], in data set [9], in [10], in data set [11] and in [12] was inactive. For the same compound, the MIC in [3] was above 78 µM; in data set [4] it was above 155 µM; in data set [7], 38.8 µM (≈ 12.5 µg/mL). Further, the CC50 in data set [5] came to 8.64 µM; in data set [8], 43.9 µM. Also, the inhibition entry in data set [6] was “Active”.
